# Assay results as given in US10570184B2, “GLP-1/glucagon receptor co-agonists for medical use” (Novo Nordisk A/S, priority 2014, dated 2020).
# Starred links: 1 amine or outer side, 2 acyl side, 3 side chain; linkers in the order of their positions; H or OH if unused. Non-standard residues stand in square brackets, D forms with d. Residues, ends and D or L forms follow the SMILES beside them. Groups on a side chain read outwards from the residue. *: point of attachment. C18 diacid = O=C(O)CCCCCCCCCCCCCCCCC(=O)*; γGlu = O=C(O)[C@H](CCC(=O)[*:2])N[*:1]; Ac4c = NC1(C(=O)O)CCC1; AEEA = NCCOCCOCC(=O)O; Aib = CC(C)(N)C(=O)O
# Biological target: T1, human GLP-1 receptor (Homo sapiens, UniProt P43220)
# T1 construct: expressed in transfected cells; host or cells: membranes of BHK cells (parent BHKTS13), clone FCW467-12A
# T1 sequence (P43220 24-463): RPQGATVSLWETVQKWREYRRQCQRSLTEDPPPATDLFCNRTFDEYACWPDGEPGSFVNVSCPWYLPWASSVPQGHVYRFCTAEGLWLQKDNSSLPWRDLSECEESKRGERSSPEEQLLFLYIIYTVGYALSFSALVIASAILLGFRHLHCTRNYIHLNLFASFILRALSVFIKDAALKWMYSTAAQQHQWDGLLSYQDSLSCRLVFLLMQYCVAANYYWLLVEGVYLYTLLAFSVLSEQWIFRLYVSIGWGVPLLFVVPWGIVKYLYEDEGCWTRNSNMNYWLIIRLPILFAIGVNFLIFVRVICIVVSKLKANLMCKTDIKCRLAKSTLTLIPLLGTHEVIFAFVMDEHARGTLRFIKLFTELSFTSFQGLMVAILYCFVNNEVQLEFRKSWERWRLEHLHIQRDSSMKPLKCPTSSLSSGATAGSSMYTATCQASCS
# Assay: Assay (II)(a) GLP-1 receptor binding, 125I-GLP-1 displacement SPA on BHK membranes
# Details: without presence of serum albumin; read-out: GLP-1R IC50 (nM) [Assay (II)(a)]
# In short: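 Membranes from BHK cells (clone FCW467-12A) stably expressing human GLP-1R were incubated with serially diluted compounds (8×10EE-13 to 8×10EE-7 M before addition) and [125I]-GLP-1-(7-36)NH2 with WGA SPA beads, 2 h at 30° C, pH 7.4. IC50 taken from displacement by non-linear regression. Run at ≤0.001% or 2.0% final serum albumin.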
row,IC50,SMILES
1,0.4 nM,"CC[C@H](C)[C@H](NC(=O)[C@H](CC(C)C)NC(=O)[C@H](Cc1c[nH]c2ccccc12)NC(=O)[C@H](C)NC(=O)[C@@H](NC(=O)[C@H](Cc1ccccc1)NC(=O)[C@H](CC(=O)O)NC(=O)[C@H](CCCNC(=N)N)NC(=O)[C@H](C)NC(=O)[C@H](CCCNC(=N)N)NC(=O)[C@H](CCCNC(=N)N)NC(=O)[C@H](CC(C)C)NC(=O)[C@H](CC(=O)O)NC(=O)[C@H](CC(C)C)NC(=O)[C@H](Cc1ccc(O)cc1)NC(=O)[C@H](CCCCN)NC(=O)[C@H](CO)NC(=O)[C@H](CC(C)C)NC(=O)[C@H](CC(=O)O)NC(=O)[C@H](CO)NC(=O)[C@@H](NC(=O)[C@H](Cc1ccccc1)NC(=O)[C@@H](NC(=O)CNC(=O)[C@H](CCC(N)=O)NC(=O)C(C)(C)NC(=O)[C@@H](N)Cc1c[nH]cn1)[C@@H](C)O)[C@@H](C)O)C(C)C)C(=O)N[C@@H](CC(N)=O)C(=O)N[C@@H](CCCCNC(=O)CC[C@H](NC(=O)CC[C@H](NC(=O)COCCOCCNC(=O)COCCOCCNC(=O)CC[C@H](NC(=O)CCCCCCCCCCCCCCCCC(=O)O)C(=O)O)C(=O)O)C(=O)O)C(N)=O [Chem. 24, N^ε29-[(4S)-4-carboxy-4-[[(4S)-4-carboxy-4-[[2-[2-[2-[[2-[2-[2-[[(4S)-4-carboxy-4-(17-carboxyheptadecanoylamino)butanoyl]amino]ethoxy]ethoxy]acetyl]amino]ethoxy]ethoxy]acetyl]amino]butanoyl]amino]butanoyl]-[Aib2,Leu10,Leu16,Arg20,Ala24,Ile27,Lys29]-Glucagon amide] (H-H[Aib]QGTFTSDLSKYLDLRRARDFVAWLINK([γGlu-γGlu-AEEA-AEEA-γGlu-C18 diacid])-NH2; N-terminus assumed)"
2,0.2 nM,"CC[C@H](C)[C@H](NC(=O)[C@H](CC(C)C)NC(=O)[C@H](Cc1c[nH]c2ccccc12)NC(=O)[C@H](CCC(N)=O)NC(=O)[C@@H](NC(=O)[C@H](Cc1ccccc1)NC(=O)[C@H](CCC(=O)O)NC(=O)[C@H](CCCNC(=N)N)NC(=O)[C@H](C)NC(=O)[C@H](CCCNC(=N)N)NC(=O)[C@H](CCCNC(=N)N)NC(=O)[C@H](C)NC(=O)[C@H](CC(=O)O)NC(=O)[C@H](CC(C)C)NC(=O)[C@H](Cc1ccc(O)cc1)NC(=O)[C@H](CCCCN)NC(=O)[C@H](CO)NC(=O)[C@H](CC(C)C)NC(=O)[C@H](CC(=O)O)NC(=O)[C@H](CO)NC(=O)[C@@H](NC(=O)[C@H](Cc1ccccc1)NC(=O)[C@@H](NC(=O)CNC(=O)[C@H](CCC(N)=O)NC(=O)C(C)(C)NC(=O)[C@@H](N)Cc1c[nH]cn1)[C@@H](C)O)[C@@H](C)O)C(C)C)C(=O)N[C@@H](CO)C(=O)N[C@@H](CCCCNC(=O)CC[C@H](NC(=O)CC[C@H](NC(=O)COCCOCCNC(=O)COCCOCCNC(=O)CC[C@H](NC(=O)CCCCCCCCCCCCCCCCC(=O)O)C(=O)O)C(=O)O)C(=O)O)C(N)=O [Chem. 28, N^ε29-[(4S)-4-carboxy-4-[[(4S)-4-carboxy-4-[[2-[2-[2-[[2-[2-[2-[[(4S)-4-carboxy-4-(17-carboxyheptadecanoylamino)butanoyl]amino]ethoxy]ethoxy]acetyl]amino]ethoxy]ethoxy]acetyl]amino]butanoyl]amino]butanoyl]-[Aib2,Leu10,Ala16,Arg20,Glu21,Ile27,Ser28,Lys29]-Glucagon amide] (H-H[Aib]QGTFTSDLSKYLDARRAREFVQWLISK([γGlu-γGlu-AEEA-AEEA-γGlu-C18 diacid])-NH2; N-terminus assumed)"
3,0.1 nM,"CC[C@H](C)[C@H](NC(=O)[C@H](CC(C)C)NC(=O)[C@H](Cc1c[nH]c2ccccc12)NC(=O)[C@H](CCC(N)=O)NC(=O)[C@@H](NC(=O)[C@H](Cc1ccccc1)NC(=O)[C@H](CCC(=O)O)NC(=O)[C@H](CCCNC(=N)N)NC(=O)[C@H](C)NC(=O)[C@H](CCCNC(=N)N)NC(=O)[C@H](CCCNC(=N)N)NC(=O)[C@H](CO)NC(=O)[C@H](CCC(=O)O)NC(=O)[C@H](CC(C)C)NC(=O)[C@H](Cc1ccc(O)cc1)NC(=O)[C@H](CCCCN)NC(=O)[C@H](CO)NC(=O)[C@H](CC(C)C)NC(=O)[C@H](CC(=O)O)NC(=O)[C@H](CO)NC(=O)[C@@H](NC(=O)[C@H](Cc1ccccc1)NC(=O)[C@@H](NC(=O)CNC(=O)[C@H](CCC(N)=O)NC(=O)C1(NC(=O)[C@@H](N)Cc2c[nH]cn2)CCC1)[C@@H](C)O)[C@@H](C)O)C(C)C)C(=O)N[C@@H](CCCCNC(=O)COCCOCCNC(=O)COCCOCCNC(=O)CC[C@H](NC(=O)CC[C@H](NC(=O)CCCCCCCCCCCCCCCCC(=O)O)C(=O)O)C(=O)O)C(=O)N[C@H](C(N)=O)[C@@H](C)O [Chem. 18, N^ε28-[2-[2-[2-[[2-[2-[2-[[(4S)-4-carboxy-4-[[(4S)-4-carboxy-4-(17-carboxyheptadecanoylamino)butanoyl]amino]butanoyl]amino]ethoxy]ethoxy]acetyl]amino]ethoxy]ethoxy]acetyl]-[Acb2,Leu10,Glu15,Arg20,Glu21,Ile27,Lys28]-Glucagon amide] (H-H[Ac4c]QGTFTSDLSKYLESRRAREFVQWLIK([AEEA-AEEA-γGlu-γGlu-C18 diacid])T-NH2)"
4,1.5 nM,"CC[C@H](C)[C@H](NC(=O)[C@H](CC(C)C)NC(=O)[C@H](Cc1c[nH]c2ccccc12)NC(=O)[C@H](CCC(N)=O)NC(=O)[C@@H](NC(=O)[C@H](Cc1ccccc1)NC(=O)[C@H](CC(=O)O)NC(=O)[C@H](CCCNC(=N)N)NC(=O)[C@H](C)NC(=O)[C@H](CCCNC(=N)N)NC(=O)[C@H](CCCNC(=N)N)NC(=O)[C@H](CO)NC(=O)[C@H](CCC(=O)O)NC(=O)[C@H](CC(C)C)NC(=O)[C@H](Cc1ccc(O)cc1)NC(=O)[C@H](CCCNC(=N)N)NC(=O)[C@H](CO)NC(=O)[C@H](Cc1ccc(O)cc1)NC(=O)[C@H](CC(=O)O)NC(=O)[C@H](CO)NC(=O)[C@@H](NC(=O)[C@H](Cc1ccccc1)NC(=O)[C@@H](NC(=O)CNC(=O)[C@H](CCC(N)=O)NC(=O)C(C)(C)NC(=O)[C@@H](N)Cc1c[nH]cn1)[C@@H](C)O)[C@@H](C)O)C(C)C)C(=O)N[C@@H](CCCCNC(=O)CC[C@H](NC(=O)COCCOCCNC(=O)CC[C@H](NC(=O)COCCOCCNC(=O)CC[C@H](NC(=O)COCCOCCNC(=O)CC[C@H](NC(=O)CC[C@H](NC(=O)CCCCCCCCCCCCCCCCC(=O)O)C(=O)O)C(=O)O)C(=O)O)C(=O)O)C(=O)O)C(=O)N[C@H](C(N)=O)[C@@H](C)O [Chem. 37, N^28-[(4S)-4-carboxy-4-[[2-[2-[2-[[(4S)-4-carboxy-4-[[2-[2-[2-[[(4S)-4-carboxy-4-[[2-[2-[2-[[(4S)-4-carboxy-4-[[(4S)-4-carboxy-4-(17-carboxyheptadecanoylamino)butanoyl]amino]butanoyl]amino]ethoxy]ethoxy]acetyl]amino]butanoyl]amino]ethoxy]ethoxy]acetyl]amino]butanoyl]amino]ethoxy]ethoxy]acetyl]amino]butanoyl]-[Aib2,Arg12,Glu15,Arg20,Ile27,Lys28]-Glucagon amide] (H-H[Aib]QGTFTSDYSRYLESRRARDFVQWLIK([γGlu-AEEA-γGlu-AEEA-γGlu-AEEA-γGlu-γGlu-C18 diacid])T-NH2; N-terminus assumed)"
5,0.3 nM,"CC[C@H](C)[C@H](NC(=O)[C@H](CC(C)C)NC(=O)[C@H](Cc1c[nH]c2ccccc12)NC(=O)[C@H](CCC(N)=O)NC(=O)[C@@H](NC(=O)[C@H](Cc1ccccc1)NC(=O)[C@H](CCC(=O)O)NC(=O)[C@H](CCC(N)=O)NC(=O)[C@H](C)NC(=O)[C@H](CCCNC(=N)N)NC(=O)[C@H](CCCNC(=N)N)NC(=O)[C@H](CO)NC(=O)[C@H](CCC(=O)O)NC(=O)[C@H](CC(C)C)NC(=O)[C@H](Cc1ccc(O)cc1)NC(=O)[C@H](CCCCN)NC(=O)[C@H](CO)NC(=O)[C@H](CC(C)C)NC(=O)[C@H](CC(=O)O)NC(=O)[C@H](CO)NC(=O)[C@@H](NC(=O)[C@H](Cc1ccccc1)NC(=O)[C@@H](NC(=O)CNC(=O)[C@H](CCC(N)=O)NC(=O)C1(NC(=O)[C@@H](N)Cc2c[nH]cn2)CCC1)[C@@H](C)O)[C@@H](C)O)C(C)C)C(=O)N[C@@H](CCCCNC(=O)CC[C@H](NC(=O)COCCOCCNC(=O)COCCOCCNC(=O)CC[C@H](NC(=O)CC[C@H](NC(=O)CCCCCCCCCCCCCCCCC(=O)O)C(=O)O)C(=O)O)C(=O)O)C(=O)N[C@H](C(N)=O)[C@@H](C)O [Chem. 38, N^ε28-[(4S)-4-carboxy-4-[[2-[2-[2-[[2-[2-[2-[[(4S)-4-carboxy-4-[[(4S)-4-carboxy-4-(17-carboxyheptadecanoylamino)butanoyl]amino]butanoyl]amino]ethoxy]ethoxy]acetyl]amino]ethoxy]ethoxy]acetyl]amino]butanoyl]-[Acb2,Leu10,Glu15,Glu21,Ile27,Lys28]-Glucagon amide] (H-H[Ac4c]QGTFTSDLSKYLESRRAQEFVQWLIK([γGlu-AEEA-AEEA-γGlu-γGlu-C18 diacid])T-NH2; N-terminus assumed)"
